Common to all, as to experiment: NCI anticancer screen, dose series, 48 h
Assay [1] deals with IGROV1 ovarian.
The subject of assay [2] is MOLT-4 leukemia.
In assay [3] the test system is UACC-62 melanoma.
Assay [4] deals with RXF 393 renal.
For assay [5], the system named is 786-0 renal.
Assay [6] relates to HT29 colon.
In assay [7] the test system is MDA-MB-231 breast.
Assay [8] concerns SF-268 CNS.
The test system of assay [9] is MDA-MB-435.
The subject of assay [10] is HS 578T breast.
The test system of assay [11] is LOX IMVI melanoma.
Assay [12] deals with COLO 205 colon.
The test system of assay [13] is HOP-92 NSCLC.

“And” between values parts separate entries of the source, which are not always exact repeats. Identical values can stand only once.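 Five compound concentrations were applied to cells in 96-well plates for 48 hours; endpoints were derived by simple linear interpolation of the resulting dose-response curve. Abbreviation: GI50, concentration required for 50% inhibition of growth. TGI denotes the concentration required for complete inhibition of growth.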

Data on 11 compounds can be found in PubChem BioAssay (NCI).

For `CC(=O)OC1COC(n2c(N)c(C#N)c(C)c(C#N)c2=S)C(OC(C)=O)C1OC(C)=O` (stereo not given), the TGI in assay [1], in [2], in assay [3], in [4], in assay [5] and in assay [6] was more than 100 µM throughout. Besides, the TGI in assay [7], in assay [8], in [9], in assay [10] and in assay [11] was more than 100 µM in each case. Besides, the GI50 in [2] was > 100 µM and 43.2 µM; in assay [4] it was 17.4 µM and 59.8 µM; in assay [10], > 100 µM and 38.3 µM.
As to `N#CS/C(Cl)=C(/C(Cl)=C(Cl)Cl)[N+](=O)[O-]`, the TGI was more than 100 µM in assay [1]; 64.9 µM in assay [2]; more than 100 µM in assay [3]; more than 100 µM in assay [4]; 76.4 µM in [5]; more than 100 µM in assay [6]. Further, the TGI is more than 100 µM in assay [7]; more than 100 µM in assay [8]; more than 100 µM in assay [12]; 61 µM in [10]; 39.8 µM in assay [11].
For `CC(=O)c1ccc2c(c1)oc(=O)n2CCN1CCCCC1`, the TGI in assay [1], in assay [2], in [3], in [4], in [5] and in [6] was more than 100 µM throughout. Further, the TGI in [7], in assay [8], in assay [9], in assay [12], in assay [10] and in assay [11] was more than 100 µM in each case.
`CC1(C)OCC(C2OC(N3O[C@H](CI)C[C@@H]3c3ccccc3)C3OC(C)(C)OC23)O1` (stereo not given in full): the TGI in assay [1], in [3], in [4], in assay [13], in assay [5] and in assay [6] was more than 100 µM throughout. Further, the TGI in [7], in [8], in [9], in assay [12], in [10] and in [11] was more than 100 µM each time.
Turning to `COc1ccc(CN(CCc2c[nH]c3ccccc23)Cc2ccc(OC)cc2)cc1`, the TGI in [1] was 9.49 µM; in [2], more than 100 µM; in [3], 5.6 µM; in assay [4], 10.8 µM; in [13], 9.85 µM; in assay [5], 12.6 µM. Also, the TGI in [6] is 6.41 µM; in [8], 18 µM; in assay [9], 11.7 µM; in assay [10] it was 63 µM.
Regarding `CCCCCc1c2nc(c(CCCCC)c3ccc([nH]3)c(CCCCC)c3ccc([nH]3)c(CCCCC)c3nc1C=C3)C=C2`, the TGI in assay [1], in assay [2], in assay [3], in assay [13], in assay [5] and in [6] was more than 100 µM in each case. The TGI in [7], in assay [8], in [9], in assay [12], in [10] and in [11] was more than 100 µM throughout.
`CCCCCCCCCCCCCCCCP(=O)(O)OP(=O)(O)OCC1OC(n2cnc3c(N)ncnc32)C(O)C1O` (stereo not given): the TGI was 35.9 µM in [1]; 76.4 µM in assay [2]; 69.2 µM in assay [3]; 42 µM in assay [13]; 53.2 µM in assay [5]; 43.8 µM in assay [6]. For the same compound, the TGI was more than 100 µM in assay [7]; 95.2 µM in assay [8]; 96.7 µM in assay [9]; more than 100 µM in [12]; 89.1 µM in [10]; 70.5 µM in assay [11].
Regarding `O=C(Cc1ccccc1)c1ccc2[nH]c(=O)oc2c1`, the TGI in [1], in assay [2], in assay [3], in assay [4], in assay [5] and in assay [6] was more than 100 µM throughout. Further, the TGI in [7] was more than 100 µM; in [8] it was more than 100 µM; in [9], more than 100 µM; in assay [12], more than 100 µM; in assay [10], 22.9 µM; in assay [11] it was more than 100 µM.
For the compound `c1ccc2sc(C3(N4CCCCC4)CCCC3)cc2c1`, the TGI in [1] is 23.6 µM; in [2], 19.8 µM; in [3], 29.4 µM; in [4], 30.3 µM; in assay [13], 25.4 µM; in assay [5] it was 28.9 µM. The TGI is 13.5 µM in assay [6]; 24.3 µM in assay [8]; 29.4 µM in assay [9]; 19.8 µM in assay [12]; 33.4 µM in assay [10]; 32.7 µM in assay [11].
Regarding `O=C1CCCc2cc3c(cc21)CCC3C(=O)O` (stereo not given), the TGI in [1], in [2], in assay [3], in [4], in assay [5] and in assay [6] was more than 100 µM throughout. Besides, the TGI in assay [7], in assay [8], in assay [12], in assay [10] and in assay [11] was more than 100 µM each time.
Turning to `N=C1C(=N)c2ccccc2-c2ccccc21`, the TGI was 3.93 µM in assay [1]; 1.61 µM in [2]; 2.78 µM in assay [3]; 3.23 µM in assay [4]; 4.46 µM in assay [5]; 3.81 µM in [6]. Moreover, the TGI in [7] is 1.16 µM; in [8], 4.16 µM; in assay [9], 0.4 µM; in assay [12], 3.24 µM; in assay [10] it was more than 26.1 µM; in [11] it was 1.02 µM.
